From PubChem BioAssay (NCI)
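Tested at 5 concentrations; 48 h exposure; 96-well plates; endpoints linearly interpolated, else capped at highest concentration. TGI: total growth inhibition.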

What was measured:
Assay in all cases: DTP human tumour cell line panel, 48 h
SF-295 CNS = tested on: SF-295 CNS
CCRF-CEM leukemia = tested on: CCRF-CEM leukemia
NCI-H23 lung = tested on: NCI-H23 lung
K-562 leukemia = tested on: K-562 leukemia
SK-MEL-2 melanoma = tested on: SK-MEL-2 melanoma
SNB-19 CNS = tested on: SNB-19 CNS
UACC-257 melanoma = tested on: UACC-257 melanoma
PC-3 prostate = tested on: PC-3 prostate
MOLT-4 leukemia = tested on: MOLT-4 leukemia
SK-MEL-28 melanoma = tested on: SK-MEL-28 melanoma
OVCAR-5 ovarian = tested on: OVCAR-5 ovarian
ACHN renal = tested on: ACHN renal
KM12 colon = tested on: KM12 colon
T-47D breast = tested on: T-47D breast
MDA-N = tested on: MDA-N
BT-549 breast = tested on: BT-549 breast
SF-268 CNS = tested on: SF-268 CNS
U251 CNS = tested on: U251 CNS
LOX IMVI melanoma = tested on: LOX IMVI melanoma

| SMILES | TGI (SF-295 CNS) | TGI (CCRF-CEM leukemia) | TGI (NCI-H23 lung) | TGI (K-562 leukemia) | TGI (SK-MEL-2 melanoma) | TGI (SNB-19 CNS) | TGI (UACC-257 melanoma) | TGI (PC-3 prostate) | TGI (MOLT-4 leukemia) | TGI (SK-MEL-28 melanoma) | TGI (OVCAR-5 ovarian) | TGI (ACHN renal) | TGI (KM12 colon) | TGI (T-47D breast) | TGI (MDA-N) | TGI (BT-549 breast) | TGI (SF-268 CNS) | TGI (U251 CNS) | TGI (LOX IMVI melanoma) |
| --- | --- | --- | --- | --- | --- | --- | --- | --- | --- | --- | --- | --- | --- | --- | --- | --- | --- | --- | --- |
| O=C(NNC(=S)Nc1ccccc1)c1cc(-c2ccccc2)nc2ccccc12 | 27.4 µM | 29.9 µM | 37.9 µM | 63.2 µM | 31.9 µM | > 100 µM | 60.1 µM | 56.4 µM | 32.2 µM | 59.5 µM | 36.3 µM | 91.9 µM | > 100 µM | 50.5 µM | 37.9 µM | 49.6 µM | 76.3 µM | 30.8 µM | – |
| O=C1N=C(SC(SC2=NC(=O)C3(NN2)c2ccccc2-c2ccccc23)=C(SC2=NC(=O)C3(NN2)c2ccccc2-c2ccccc23)SC2=NC(=O)C3(NN2)c2ccccc2-c2ccccc23)NNC12c1ccccc1-c1ccccc12 | > 10 µM | > 10 µM | > 10 µM | > 10 µM | – | > 10 µM | > 10 µM | > 10 µM | 2.95 µM | > 10 µM | – | 9.09 µM | > 10 µM | > 10 µM | > 10 µM | > 10 µM | > 10 µM | – | > 10 µM |
| Cc1ccc([N+](=O)[O-])cc1S(=O)(=O)Nc1ccc(C2=NOC(c3ccco3)C2)cc1 (centres undefined) | 46.5 µM | > 100 µM | 37.4 µM | 59.3 µM | 33.8 µM | 37.9 µM | 39.1 µM | 40.5 µM | 46.6 µM | 43.5 µM | 52.2 µM | 49 µM | 24.7 µM | 89.4 µM | 31.5 µM | 39.2 µM | 97.1 µM | – | 40.2 µM |
| CC(CC[C@@H](O)C(C)(C)O)C1[C@@H](O)CC2(C)C3CC(O)C4C(C)(C)[C@@H](OC5OC(CO)C(O)C(O)C5O)CC[C@@]45C[C@@]35CC[C@]12C (some centres undefined) | > 10 µM | > 10 µM | > 10 µM | > 10 µM | > 10 µM | > 10 µM | > 10 µM | > 10 µM | > 10 µM | > 10 µM | > 10 µM | > 10 µM | > 10 µM | > 10 µM | > 10 µM | > 10 µM | > 10 µM | > 10 µM | – |
| N=C(N)C1CN(CCCCCCCCCCN2CC(C(=N)N)C(=O)NC2=O)C(=O)NC1=O (centres undefined) | > 10 µM | > 10 µM | > 10 µM | > 10 µM | > 10 µM | > 10 µM | > 10 µM | > 10 µM | > 10 µM | – | > 10 µM | > 10 µM | > 10 µM | > 10 µM | > 10 µM | > 10 µM | – | > 10 µM | > 10 µM |
| CCOC(=O)c1nnsc1NC(=O)Nc1ccc(Cc2ccc(NC(=O)Nc3snnc3C(=O)OCC)cc2)cc1 | > 100 µM | > 100 µM | > 100 µM | > 100 µM | > 100 µM | > 100 µM | > 100 µM | > 100 µM | > 100 µM | > 100 µM | > 100 µM | > 100 µM | > 100 µM | > 100 µM | > 100 µM | > 100 µM | > 100 µM | > 100 µM | – |
| CC(=O)C1(Cc2cccc3ccccc23)S(=O)(=O)OCCOS1(=O)=O | 20.5 µM | > 100 µM | 60.4 µM | > 100 µM | – | 49.2 µM | 16.6 µM | 29.3 µM | > 100 µM | 41.2 µM | 32.5 µM | 38 µM | 28.8 µM | 43.3 µM | 24.6 µM | 30.6 µM | 50.2 µM | 31.1 µM | 25.7 µM |
| COc1cc(C2=C(c3cc(OC)c4ccccc4c3OC)C(=O)c3ccccc3C2=O)c(OC)c2ccccc12 | > 100 µM | > 100 µM | > 100 µM | – | > 100 µM | > 100 µM | > 100 µM | > 100 µM | > 100 µM | > 100 µM | > 100 µM | > 100 µM | > 100 µM | > 100 µM | > 100 µM | > 100 µM | > 100 µM | > 100 µM | > 100 µM |
| Cc1ccc2nc(Cl)c(/C=N/N3C(=O)/C(=C/c4cccc([N+](=O)[O-])c4)N=C3c3ccccc3)cc2c1 | > 100 µM | 97 µM | – | > 100 µM | 61.7 µM | > 100 µM | > 100 µM | 76.9 µM | 80.5 µM | > 100 µM | > 100 µM | > 100 µM | > 100 µM | > 100 µM | 42.2 µM | > 100 µM | > 100 µM | > 100 µM | > 100 µM |
| COc1c2cc(C(C)(C)C)cc1Cc1cccc(c1OCc1cccc([N+](=O)[O-])c1)Cc1cc(C(C)(C)C)cc(c1OC)Cc1cccc(c1OCc1cccc([N+](=O)[O-])c1)Cc1cc(C(C)(C)C)cc(c1OC)Cc1cccc(c1OCc1cccc([N+](=O)[O-])c1)C2 | > 50 µM | > 5 µM | > 50 µM | > 50 µM | > 50 µM | > 50 µM | > 50 µM | > 50 µM | > 50 µM | > 50 µM | > 50 µM | > 50 µM | > 50 µM | > 50 µM | > 50 µM | > 50 µM | > 50 µM | > 50 µM | – |
| CN1CN(c2ccccc2)C2(CCN(Cc3csc4ccccc34)CC2)C1=O | 26.6 µM | > 100 µM | 80.4 µM | > 100 µM | – | > 100 µM | 31.9 µM | 43 µM | 29.6 µM | 68.7 µM | 25.1 µM | 92.4 µM | 26.8 µM | 71 µM | 32.2 µM | 20.5 µM | > 100 µM | – | 25.2 µM |
| COC(=O)C1=C(C)C(=O)[C@]23C(CCCC[C@H]12)C(=O)[C@H](C(=O)OC)C3C (some centres undefined) | > 100 µM | > 100 µM | > 100 µM | > 100 µM | – | > 100 µM | > 100 µM | > 100 µM | > 100 µM | > 100 µM | > 100 µM | > 100 µM | > 100 µM | > 100 µM | > 100 µM | > 100 µM | > 100 µM | > 100 µM | > 100 µM |
| NC(=O)Nc1ccc(S(=O)(=O)Nc2ccc(S(N)(=O)=O)cc2)cc1 | > 100 µM | > 100 µM | > 100 µM | > 100 µM | > 100 µM | > 100 µM | > 100 µM | > 100 µM | – | > 100 µM | > 100 µM | > 100 µM | > 100 µM | > 100 µM | > 100 µM | > 100 µM | 2.59 µM | > 100 µM | > 100 µM |
| COC(=O)[C@H](Cc1ccccc1)NP(=O)(OCCC#N)OCC1OC(n2cc(C)c(=O)[nH]c2=O)CC1N=[N+]=[N-] (some centres undefined) | > 100 µM | > 100 µM | > 100 µM | > 100 µM | > 100 µM | > 100 µM | > 100 µM | > 100 µM | > 100 µM | – | > 100 µM | > 100 µM | > 100 µM | > 100 µM | > 100 µM | > 100 µM | > 100 µM | > 100 µM | > 100 µM |
| CCN(C(=O)N[C@@H](Cc1ccccc1)C(=O)N[C@@H](CC(C)C)C(=O)OC)c1ccccc1 | 84.3 µM | > 100 µM | 53.8 µM | > 100 µM | > 100 µM | > 100 µM | 54.3 µM | 97.4 µM | 44.2 µM | 32.6 µM | 66.6 µM | 51.3 µM | > 100 µM | > 100 µM | > 100 µM | > 100 µM | – | 72.7 µM | 30.1 µM |
| CC1OC(OC2C(O)COC(OC3C(C)OC(OC4C(OC(=O)[C@]56CCC(C)(C)C[C@@H]5C5=CCC7[C@@]8(C)C[C@H](O)[C@H](OC9OC(CO)C(O)C(OC%10OC(CO)C(O)C(O)C%10O)C9O)[C@@](C)(CO)[C@@H]8CC[C@@]7(C)[C@]5(C)CC6)OCC(O)C4O)C(O)C3OC3OCC(O)(CO)C3O)C2O)C(O)C(O)C1O (some centres undefined) | 18.6 µM | 15.4 µM | 14.3 µM | 50 µM | – | 16.6 µM | 20.9 µM | 13.7 µM | 30.1 µM | 14 µM | 17.4 µM | 19.7 µM | 26.2 µM | 25 µM | 19.2 µM | 13.3 µM | 20.3 µM | 20.6 µM | 17.8 µM |
| Fc1ccc(Oc2nc3ccc(C(F)(F)F)cc3nc2-c2ccccc2)cc1 | > 100 µM | > 10 µM | > 100 µM | > 10 µM | > 100 µM | > 100 µM | > 100 µM | > 100 µM | > 100 µM | – | > 100 µM | > 100 µM | > 100 µM | > 100 µM | > 100 µM | > 100 µM | > 100 µM | – | > 100 µM |
| COc1ccc(/C=C2\NC(=S)N(/C=C3\C(=O)Oc4ccccc4C3=O)C2=O)cc1OC | > 100 µM | > 100 µM | > 100 µM | > 100 µM | > 100 µM | > 100 µM | > 100 µM | > 100 µM | > 100 µM | – | > 100 µM | > 100 µM | > 100 µM | > 100 µM | > 100 µM | > 100 µM | > 100 µM | > 100 µM | > 100 µM |
